Like-named read-outs stand apart in the source and are kept apart here.

Broadly, the Papp is a coefficient for how fast a substance crosses the barrier. A higher Papp goes with ready permeation.

Data set [1] in a line: Single compound bioaccessibility: LC–HRMS intensities after in vitro gastrointestinal digestion vs other extractions. Format: in vitro ADME. To be noted: whole sample set, Dig vs Org and No_Dig.
Description: Five grams of each sample underwent in vitro gastrointestinal digestion. The simulated digestion was performed following the three-stage model (oral, gastric, and intestinal phases) proposed by the INFOGEST consortium and described by Minekus et al. [13] with the slight modifications described in [14]. Briefly, during the oral phase (2 min), samples were mixed at 37 °C in a SW-20 water bath (Julabo GmbH, Seelbach, Germany) with an electrolyte solution to simulate salivary fluid and with amylase enzyme. Samples then underwent a gastric phase (2 h) in which they were mixed with simulated gastric fluid and pepsin enzyme. Finally, during the intestinal phase (2 h), samples from the gastric phase were mixed with simulated intestinal fluid, bile salts, and pancreatin. Solutions were adjusted to pH 3 and 7 for the gastric and intestinal phases, respectively, with a MICROpH 2002 pH-meter (CRISON, Carpi, Italy), and the digestion process was stopped by bringing the pH down to 5.4. Samples were then centrifuged at 12,500× g and 0 °C for 10 min in a Heraeus megafuge 11R centrifuge (THERMO electron, Chateau-Gontier (France), and the supernatants were filtered through a 0.45 μm CA syringe filters and immediately stored at −20 °C until further analysis. The digestion process was replicated four times for each sample. Digestion blanks in which the whole sample was replaced with 5 mL of water were also prepared in order to monitor the possible contributions of the enzymes and salts employed during in vitro digestion in the subsequent analytic determinations.
Non-digestion extraction was performed to allow a comparison with the samples digested in vitro. This employed the same temperature and time conditions and the same weight and volume ratios. Samples were extracted at 37 °C for 4 h and 2 min (the whole time for the simulated gastrointestinal digestion) with just Milli-Q water and without enzymes or simulated fluids in order to avoid food matrix degradation due to those components. After this, non-digested samples were centrifuged and filtered in the same way as the digested samples.
Characterization of polyphenols and methylxanthines from all the extract types (Org, Dig, and No_Dig) of the samples was performed with an untargeted metabolomics approach by using a rapid-resolution LC system (RRLC) 1200 series (Agilent Technologies, Waldbronn, Germany), including a binary pump, thermostatized autosampler, column oven, and a DAD detector. The RRLC system was coupled to a 6520 series electrospray ionization (ESI) source with a quadrupole time-of-flight (QTOF) mass spectrometer (Agilent Technologies). Compound separation was performed using an InfinityLab Poroshell 120EC-C18 column (2.1 × 100 mm, particle size of 2.7 μm) with a guard column (2.1 × 5 mm) (Agilent Technologies). […]
Another data set deals with Caco-2 cells. To be noted: cited from earlier work; for Papp values: in purified extracts, ref Kosińska et al.
A short description of a further data set: in vitro. To be noted: human, Caco-2.

`Oc1cc(O)c2c(c1)O[C@H](c1ccc(O)c(O)c1)[C@H](O)[C@H]2c1c(O)cc(O)c2c1O[C@H](c1ccc(O)c(O)c1)[C@@H](O)C2` [PCB1, procyanidin B1]: the “detection on the basolateral side” value with Caco-2 cell monolayers is “not detected”. Further, the “concentration (log10-intensity) after gastrointestinal digestion in comparison with the other extraction types” value (“concentration (log10-intensity)” for short) in data set [1] is reported as “higher”.

Consider `Cn1c(=O)c2c(ncn2C)n(C)c1=O` [caffeine, reference compound], for which the “concentration (log10-intensity)” value in data set [1] is recorded as “slightly decreased”.

As for `O.Oc1cc(O)c2c(c1)O[C@H](c1ccc(O)c(O)c1)[C@@H](O)C2` [catechin], in the data set with Caco-2 cell monolayers, the “T2 values relative to T1 values (absorption percentage)” value was 1.63-1.78 fold and the apparent permeability coefficients is recorded as 3.28-30.47 × 10^−6 cm/s. In the data set with Caco-2 cells, the apparent permeability is 0.8 ×10⁻⁶ cm/s and the Papp values was 4.19 ×10⁻⁶ cm/s. The “concentration (log10-intensity)” value in data set [1] is “decreased”.

For `Oc1cc(O)c2c(c1)O[C@H](c1ccc(O)c(O)c1)[C@H](O)C2` [epicatechin], the “T2 values relative to T1 values (absorption percentage)” value in the data set with Caco-2 cell monolayers (human) is reported as 1.56-1.86 fold. Moreover, the Papp values with Caco-2 cells is 3.38 ×10⁻⁶ cm/s. Besides, in data set [1], the “concentration (log10-intensity)” value was “decreased”. Besides, in the data set “in vitro”, the apparent permeability (Papp) lay in the range of 3.28 to 30.5 ×10⁻⁶ cm/s.

Source of the values: paper PMC7700373, “Polyphenolic and Methylxanthine Bioaccessibility of Cocoa Bean Shell Functional Biscuits: Metabolomics Approach and Intestinal Permeability through Caco-2 Cell Models” (Antioxidants, 2020).
